Experiments:
[1] = system: Thoracic aortic rings; test: Thoracic aortic rings assay (Example 19a; IBMX as 100% inhibition); settings: compound at 10 μM; rat thoracic aortic rings contracted with 100 ng/mL phenylephrine; read-out: Percent Relaxation at 10 μM
Experimental: Thoracic aortic rings were dissected from anesthetized (isoflurane) male Sprague-Dawley rats weighing 275-299 g. Tissues were immediately transferred to ice-cold Krebs-Henseleit solution, which had been aerated with 95% O2 and 5% CO2 for 30 minutes. Following removal of connective tissue, aortic sections were cut into 4 rings (˜2 mm each) and suspended on 2 L-shaped hooks, with one hook fixed at the bottom of the tissue bath (Schuler Organ Bath, Harvard Apparatus) and the other connected to a force transducer (F30 Force Transducer, Harvard Apparatus). Baths contained Krebs Henseleit solution (10 mL) heated to 37° C. and aerated with 95% O2 and 5% CO2. Rings were brought to an initial tension of 0.3-0.5 g and gradually raised to a resting tension of 1.0 g over 60 minutes. Rings were rinsed with Krebs Henseleit solution (heated to 37° C. and aerated with 95% O2 and 5% CO2) at 15 minute intervals until a stable baseline was obtained. Rings were considered to be stable after a resting tension of 1.0 g was maintained (for approximately 10 minutes) without need for adjustment. Rings were then contracted with 100 ng/mL phenylephrine by adding 100 uL of a 10 μg/mL phenylephrine stock solution. Tissues achieving a stable contraction were then treated in a cumulative, dose dependent manner with test compounds prepared in dimethylsulfoxide (DMSO). In some cases, tissues were rinsed three times over a 5 minute period with Krebs-Heinseleit's solution (heated to 37° C. and aerated with 95% O2 and 5% CO2), allowed to stabilize at baseline, and then used for characterization of other test articles or DMSO effects. All data were collected using the HSE-ACAD software provided by Harvard Apparatus. […] EC50 values were calculated from concentration-response curves generated with GraphPad Prism Software.

[2] = molecular target: T1, Human soluble guanylate cyclase enzyme (hsGC) (Homo sapiens (Human), UniProt Q02108+Q02153); test: Purified human sGC enzyme synergy assay in the presence of 1 μM sodium nitroprusside (SNP); assay type: biochemical; settings: with 1 μM SNP; for sGC Enzyme (fold increase at 10 μM with SNP): 10 μM compound; for sGC Enzyme (fold increase at 30 μM with SNP): 30 μM compound
Outline: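 Purified human sGC (5 ng) incubated 30 min at 37 °C with compounds at 10 or 30 μM, 1 μM sodium nitroprusside, 300 μM GTP and 1 mM IBMX in Tris pH 8.0 with MgCl2/DTT. cGMP quantified against a standard curve, and specific activity expressed as fold-change over DMSO control.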

[3] = molecular target: T1, Human soluble guanylate cyclase enzyme (hsGC); test: Purified human sGC enzyme activity assay; assay type: biochemical; settings: for sGC Enzyme (specific activity at 10 μM) / sGC Enzyme (fold increase at 10 μM without SNP): 10 μM compound; for sGC Enzyme (specific activity at 30 μM) / sGC Enzyme (fold increase at 30 μM without SNP): 30 μM compound
Outline: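 Purified human sGC (5 ng) incubated 30 min at 37° C with compound at 10 or 30 μM final in pH 8.0 Tris with 300 μM GTP, 2 mM MgCl2, 2 mM DTT and 1 mM IBMX, then stopped with cold methanol. cGMP quantified against a standard curve. Specific activity (nmol cGMP/mg sGC/min) expressed as fold-change over DMSO control.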

[4] = molecular target: T2, soluble guanylate cyclase (sGC) (Homo sapiens (Human), UniProt Q02108+Q02153); test: sGC-HEK-cGMP assay run with SNP incubation (HEK WC assay); assay type: cell-based; settings: for Emax at 10 µM: read-out: HEK WC Assay (% Emax at 10 uM/with 10 uM SNP); for Emax at 30 µM: read-out: HEK WC Assay (% Emax at 30 uM/with 10 uM SNP)
Outline: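 HEK293 cells with endogenous sGC were pretreated with 0.5 mM IBMX for 15 min at 37 °C, then exposed to test compound plus sodium nitroprusside for 10 min at 37 °C.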

[5] = molecular target: T2, soluble guanylate cyclase (sGC); test: sGC-HEK-cGMP assay run in the absence of SNP (HEK WC assay); assay type: cell-based; settings: no SNP, increase in the sGC receptor activity; for HEK WC Assay (fold increase at 10 μM): compound at 10 μM; for HEK WC Assay (fold increase at 30 μM): compound at 30 μM
Outline: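 HEK293 cells with endogenous sGC, preincubated 15 min at 37° C with 0.5 mM IBMX, then exposed to test compound 10 min at 37° C without SNP. Cells lysed in 0.1 M HCl; cGMP quantified by LC/MS against a standard curve. EC50 from concentration-response curves.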

T1 sequence (Q02153 whole entry): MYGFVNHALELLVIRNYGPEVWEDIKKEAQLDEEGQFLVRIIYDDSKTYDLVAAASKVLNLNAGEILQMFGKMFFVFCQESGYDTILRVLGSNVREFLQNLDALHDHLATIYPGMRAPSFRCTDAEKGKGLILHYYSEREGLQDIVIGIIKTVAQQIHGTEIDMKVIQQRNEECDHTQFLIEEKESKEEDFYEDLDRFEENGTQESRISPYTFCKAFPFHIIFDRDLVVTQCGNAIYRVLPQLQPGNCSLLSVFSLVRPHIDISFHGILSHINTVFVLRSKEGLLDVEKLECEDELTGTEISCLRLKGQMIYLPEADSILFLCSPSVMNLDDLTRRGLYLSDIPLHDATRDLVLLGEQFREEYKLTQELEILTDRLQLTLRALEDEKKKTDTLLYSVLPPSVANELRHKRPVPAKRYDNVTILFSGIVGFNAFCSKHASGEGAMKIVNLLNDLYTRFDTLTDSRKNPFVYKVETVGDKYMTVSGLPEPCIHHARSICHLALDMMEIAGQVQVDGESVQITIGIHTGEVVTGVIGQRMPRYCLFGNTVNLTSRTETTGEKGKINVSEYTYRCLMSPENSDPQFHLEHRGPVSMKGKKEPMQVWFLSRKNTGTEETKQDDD
T1 sequence (Q02108 whole entry): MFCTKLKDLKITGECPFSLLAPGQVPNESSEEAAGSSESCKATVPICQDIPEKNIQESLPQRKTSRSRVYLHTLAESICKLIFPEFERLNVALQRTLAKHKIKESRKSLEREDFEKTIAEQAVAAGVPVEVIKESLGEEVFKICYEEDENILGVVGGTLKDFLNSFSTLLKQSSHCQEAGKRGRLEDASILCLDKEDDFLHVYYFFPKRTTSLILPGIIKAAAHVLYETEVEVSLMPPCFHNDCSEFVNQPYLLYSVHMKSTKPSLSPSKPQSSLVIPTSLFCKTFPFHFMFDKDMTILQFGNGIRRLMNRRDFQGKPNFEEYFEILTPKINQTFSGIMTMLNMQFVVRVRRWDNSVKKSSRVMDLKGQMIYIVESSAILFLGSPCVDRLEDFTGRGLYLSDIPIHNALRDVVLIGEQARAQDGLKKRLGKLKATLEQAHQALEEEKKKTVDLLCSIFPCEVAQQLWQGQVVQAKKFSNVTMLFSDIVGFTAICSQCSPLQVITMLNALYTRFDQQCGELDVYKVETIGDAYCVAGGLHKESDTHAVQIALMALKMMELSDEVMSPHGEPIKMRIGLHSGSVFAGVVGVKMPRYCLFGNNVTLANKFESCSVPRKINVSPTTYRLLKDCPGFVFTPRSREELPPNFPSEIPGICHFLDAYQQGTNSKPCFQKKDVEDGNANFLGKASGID
T2 sequence (Q02153 whole entry): as the sequence (Q02153 whole entry) above
T2 sequence (Q02108 whole entry): as the sequence (Q02108 whole entry) above

Row | SMILES | inhibition at 10 µM [1] [%] | sGC Enzyme (fold increase at 10 μM with SNP) [2] | sGC Enzyme (fold increase at 30 μM with SNP) [2] | sGC Enzyme (specific activity at 10 μM) [3] | sGC Enzyme (fold increase at 10 μM without SNP) [3] | sGC Enzyme (specific activity at 30 μM) [3] | sGC Enzyme (fold increase at 30 μM without SNP) [3] | Emax at 10 µM [4] [%] | Emax at 30 µM [4] [%] | HEK WC Assay (fold increase at 10 μM) [5] | HEK WC Assay (fold increase at 30 μM) [5]
1 | Fc1ccccc1Cn1nc(-c2ccccn2)cc1-c1ccco1 [Compound I-61] | 103 | D (D = equal or >10 fold increase) | D (D = equal or >10 fold increase) | C (C = 100 to <200) | B (B = 2 to <5 fold increase) | D (D = 200 to <500) | C (C = 5 to <10 fold increase) | 20 to 40 | 20 to 40 |  | 
2 | Fc1ccccc1Cn1nc(-c2ncccn2)cc1-c1ccsc1 [Compound I-4] | 102 | B (B = 2 to <5 fold increase) | C (C = 5 to <10 fold increase) | E (E = 500 to <1000) | B (B = 2 to <5 fold increase) | E (E = 500 to <1000) | C (C = 5 to <10 fold increase) | 10 to 20 | 20 to 40 | A (A = no increase to <1 fold increase) | D (D = 5 to <10 fold increase)
3 | Fc1ccccc1Cn1nc(-c2ncccn2)cc1-c1nccs1 [Compound I-33] | 110 |  | D (D = equal or >10 fold increase) | C (C = 100 to <200) | A (A = no increase to <2 fold increase) | D (D = 200 to <500) | C (C = 5 to <10 fold increase) | 20 to 40 | 40 to 60 | B (B = 1 to <2 fold increase) | C (C = 2 to <5 fold increase)
4 | Fc1ccccc1Cn1nc(-c2ccccn2)cc1-c1ccccc1 [Compound I-5] | 55.6 | B (B = 2 to <5 fold increase) | B (B = 2 to <5 fold increase) | D (D = 200 to <500) | B (B = 2 to <5 fold increase) | D (D = 200 to <500) | B (B = 2 to <5 fold increase) | 0 to 10 | 10 to 20 | A (A = no increase to <1 fold increase) | A (A = no increase to <1 fold increase)
5 | Fc1ccccc1Cn1nc(-c2ccccn2)cc1-c1ccccc1F [Compound I-7] | 60.4 | B (B = 2 to <5 fold increase) | C (C = 5 to <10 fold increase) | D (D = 200 to <500) | B (B = 2 to <5 fold increase) | D (D = 200 to <500) | B (B = 2 to <5 fold increase) | 0 to 10 | 0 to 10 |  | 
6 | Fc1ccccc1Cn1nc(-c2ccccn2)cc1C1CCC1 [Compound I-42] | 72.1 | B (B = 2 to <5 fold increase) | C (C = 5 to <10 fold increase) | D (D = 200 to <500) | B (B = 2 to <5 fold increase) | E (E = 500 to <1000) | C (C = 5 to <10 fold increase) | 0 to 10 | 10 to 20 |  | 

— patent publication US10189809B2, “SGC stimulators” (Ironwood Pharmaceuticals, Inc., priority 2010, dated 2019)
